{"source": "paper PMC4109680", "about": "“Identification and Preclinical Pharmacology of the γ-Secretase Modulator BMS-869780” (International Journal of Alzheimer's Disease, 2014)", "key": {"[1]": {"assay": "Pharmacokinetics in male Sprague-Dawley rats", "assay_type": "in vivo", "details": "plasma, Rat", "experimental": "(§1) Male Sprague-Dawley (SD) rats (300–350 g) were fasted overnight, and three per group received BMS-869780 either as an intravenous (IV) infusion in PEG400 : ethanol (90 : 10 w/w) at 1 mg/kg over 5 min via the jugular vein or as nanosuspension (d50 ca. 300 nm) by oral gavage at 5 mg/kg in Povidone K-30 : sodium lauryl sulfate : water (2.5 : 0.12 : 97.38 w/w/w/w). For the IV infusion, serial blood samples were obtained before dose and at 0.17, 0.25, 0.5, 0.75, 1, 2, 4, 6, 8, and 24 hours after dose. For the PO nanosuspension, serial blood samples were obtained before dose and at 0.25, 0.5, 0.75, 1, 2, 4, 6, 8, and 24 h after dose. Blood samples, ~0.3 mL, for all studies were collected from the jugular vein into K3EDTA-containing tubes and then centrifuged at 4°C (1500–2000 ×g) to obtain plasma, which was stored at −20°C until analysis by LC/MS/MS. In male beagle dogs, the PK of BMS-869780 was evaluated in a cross-over study design with a one-week washout between treatments. Dogs were fasted overnight, and three animals (9.5 to 10.7 kg) received BMS-869780 by IV infusion at 1 mg/kg over 5 minutes in PEG400 : ethanol (90 : 10 w/w) or as nanosuspension (d50 ca. 300 nm) by oral gavage at 5 mg/kg in Povidone K-30 : sodium lauryl sulfate : water (2.5 : 0.12 : 97.38 w/w/w/w). Serial blood samples (~0.3 mL) were collected from a saphenous vein into K3EDTA-containing tubes before dose and at 0.083, 0.17, 0.25, 0.5, 0.75, 1, 2, 4, 6, 8, and 24 hours after IV dose, and 0.25, 0.5, 0.75, 1, 2, 4, 6, 8, and 24 hours after oral dose, followed by centrifugation at 4°C (1500 to 2000 ×g) to obtain plasma. Samples were stored at −20°C until analysis of BMS-869780 levels by LC-MS/MS. In male cynomolgus monkeys, the PK of BMS-869780 was evaluated in a cross-over study design with a 1-week washout between treatments. Following an overnight fast, three animals (4.5 to 8 kg) received BMS-869780 by IV infusion via a femoral vein at 1 mg/kg over 10 minutes in PEG400 : ethanol (90 : 10), or by oral gavage at 5 mg/kg in Povidone K-30 : sodium lauryl sulfate : water (2.5 : 0.12 : 97.38). Serial blood samples, ~0.3 mL, were collected from a femoral artery into K3EDTA-containing tubes before dose and at 0.083, 0.17, 0.25, 0.5, 0.75, 1, 2, 4, 6, 8, and 24 hours after IV dose, and 0.25, 0.5, 0.75, 1, 2, 4, 6, 8, and 24 hours after oral dose, followed by centrifugation at 4°C (1500 to 2000 ×g) to obtain plasma. Samples were stored at −20°C until analysis of BMS-869780 levels by LC-MS/MS. The PK parameters of BMS-869780 were obtained by noncompartmental analysis of plasma concentration versus time data (WinNonlin software, Version 5.0; Pharsight Corporation, Mountain View, CA). The peak concentration (C max) and time for C max (T max) were recorded directly from experimental observations. The area under the curve from time zero to the last sampling time (AUC^0-T) and the area under the curve from time zero to infinity (AUC^INF) were calculated using a combination of linear and log trapezoidal summations. The total plasma clearance (CLTp), steady-state volume of distribution (Vss), apparent elimination half-life (T 1/2), and mean residence time (MRT) were estimated after IV administration. The absolute oral bioavailability (F) was estimated as the ratio of dose-normalized AUC values following oral and IV doses.\n(§2) Figure 9 Pharmacokinetics (PK) of BMS-869780 across species for prediction of human PK. Rats, dogs, and cynomolgus monkeys were dosed with BMS-869780 intravenously (IV ▲) at 1 mg/kg or oral nanosuspension (PO ●) at 5 mg/kg. Plasma concentrations of BMS-869780 were determined for up to 24 hours after the dose. (a) Rat. (b) Dog. (c) Cynomolgus monkey."}, "pregnane-X-receptor": {"target": "T1, pregnane-X-receptor (Homo sapiens, UniProt O75469)", "T1 construct": "host or cells: HepG2", "T1 sequence (O75469 whole entry)": "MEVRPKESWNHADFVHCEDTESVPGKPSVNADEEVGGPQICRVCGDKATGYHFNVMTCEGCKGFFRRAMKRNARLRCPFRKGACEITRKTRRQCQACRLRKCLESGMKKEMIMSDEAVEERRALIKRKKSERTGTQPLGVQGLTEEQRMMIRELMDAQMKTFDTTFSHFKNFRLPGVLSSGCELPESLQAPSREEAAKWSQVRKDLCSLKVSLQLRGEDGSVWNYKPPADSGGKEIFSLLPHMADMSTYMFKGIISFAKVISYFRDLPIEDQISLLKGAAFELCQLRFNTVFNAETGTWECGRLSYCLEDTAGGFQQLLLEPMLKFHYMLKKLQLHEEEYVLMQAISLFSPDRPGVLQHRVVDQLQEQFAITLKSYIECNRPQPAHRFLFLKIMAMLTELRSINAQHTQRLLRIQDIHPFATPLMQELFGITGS", "assay": "Pregnane-X-receptor transactivation assay (PXR-TA), luciferase reporter in HepG2 cells", "assay_type": "cell-based", "experimental": "Determination of IC50 values for inhibition of secreted alkaline phosphatase (SEAP) was carried out using an H4 cell line stably expressing SEAP. Cells were treated overnight with compounds in 384-well format, and SEAP accumulation in the culture media was quantified using a chemiluminescence substrate. The pregnane-X-receptor transactivation assay (PXR-TA) was based on the methods of Goodwin et al. as described previously. In the 4-day rat study with BMS-869780, tissues were fixed in 10% neutral buffered formalin, embedded in paraffin, sectioned, stained with hematoxylin and eosin, and examined by light microscopy.\nFigure 10 BMS-869780 caused PXR activation in vitro and lipidosis in rat liver. (a) PXR activation in the presence of BMS-869780 was evaluated in HepG2 cell cultures using a luciferase transcriptional reporter construct (●), or by assay of CYP3A4 mRNA levels in primary human hepatocyte (PHH) cultures from two individual donors (▲ and ▼). Activation in both assays is expressed as % relative to activation in the presence of rifampicin, 10 μM, in parallel cultures. (b) Liver section from vehicle-dosed rats. (c) Liver section from rats given 4 daily doses of BMS-869780 at 100 mg/kg."}, "[2]": {"assay": "Pharmacokinetics in male cynomolgus monkeys", "assay_type": "in vivo", "details": "cynomolgus monkey, plasma", "experimental": "as §1, §2"}}, "data": [{"smiles": "COc1cc(Nc2nc3n(n2)CCCC[C@H]3c2ccc(F)cc2)ccc1-n1cnc(Cl)c1", "note": "[BMS-869780]", "values": [{"measurement": "AUC(0-t)", "setting": "[1]; IV 1 mg/kg", "value": "1.48 ± 0.121", "unit": "µM·h"}, {"measurement": "MRT", "setting": "[1]; IV 1 mg/kg", "value": "1 ± 0.2", "unit": "h"}, {"measurement": "clearance", "setting": "[1]; IV 1 mg/kg", "value": "24.3 ± 1.7", "unit": "mL/min/kg"}, {"measurement": "half-life", "setting": "[1]; IV 1 mg/kg", "value": "2 ± 0.3", "unit": "h"}, {"measurement": "Vd", "setting": "[1]; IV 1 mg/kg, read-out: Vss", "value": "1.8 ± 0.5", "unit": "L/kg"}, {"measurement": "AUC(0-t)", "setting": "[1]; PO suspension 5 mg/kg", "value": "4 ± 0.964", "unit": "µM·h"}, {"measurement": "Cmax", "setting": "[1]; PO suspension 5 mg/kg", "value": "674 ± 227", "unit": "nM"}, {"measurement": "Tmax", "setting": "[1]; PO suspension 5 mg/kg", "value": "3.3 ± 1.2", "unit": "h"}, {"measurement": "bioavailability", "setting": "[1]; PO suspension 5 mg/kg", "value": 54, "unit": "%"}, {"measurement": "activity in PXR-TA", "setting": "pregnane-X-receptor", "value": "robust activity"}, {"measurement": "concentrations at which PXR transcription was activated", "setting": "pregnane-X-receptor; HepG2 luciferase reporter, relative to rifampicin 10 μM", "value": "≥ 300", "unit": "nM"}, {"measurement": "AUC(0-t)", "setting": "[2]; IV 1 mg/kg", "value": "2.63 ± 0.926", "unit": "µM·h"}, {"measurement": "MRT", "setting": "[2]; IV 1 mg/kg", "value": "3.8 ± 0.7", "unit": "h"}, {"measurement": "clearance", "setting": "[2]; IV 1 mg/kg", "value": "15.2 ± 5.9", "unit": "mL/min/kg"}, {"measurement": "half-life", "setting": "[2]; IV 1 mg/kg", "value": "4 ± 0.5", "unit": "h"}, {"measurement": "Vd", "setting": "[2]; IV 1 mg/kg, read-out: Vss", "value": "3.7 ± 1.3", "unit": "L/kg"}, {"measurement": "AUC(0-t)", "setting": "[2]; PO suspension 5 mg/kg", "value": "2.03 ± 1.04", "unit": "µM·h"}, {"measurement": "Cmax", "setting": "[2]; PO suspension 5 mg/kg", "value": "219 ± 94", "unit": "nM"}, {"measurement": "Tmax", "setting": "[2]; PO suspension 5 mg/kg", "value": 2, "unit": "h"}, {"measurement": "bioavailability", "setting": "[2]; PO suspension 5 mg/kg", "value": 16, "unit": "%"}]}]}
